What was measured:
[1] = target: T1, Proto-oncogene tyrosine-protein kinase ROS (Homo sapiens, UniProt P08922)
A549 = assay: cells; settings: Homo sapiens, A549, 72 h
NCI-H3122 = assay: cells; settings: Homo sapiens, NCI-H3122, 72 h
Description: Antiproliferative activity against ALK-addicted human NCI-H3122 cells assessed as reduction in cell viability incubated for 72 hrs by MTT assay

HCC78 = assay: cells; settings: Homo sapiens, HCC78, 72 h
Description: Antiproliferative activity against ROS1-addicted human HCC78 cells assessed as reduction in cell viability incubated for 72 hrs by MTT assay

[2] = target: T1, Proto-oncogene tyrosine-protein kinase ROS; remark: listed apart in the source
[3] = target: Tyrosine-protein kinase BTK (Homo sapiens) (UniProt Q06187); assay: Inhibition of BTK (unknown origin) at 1 uM
[4] = target: CDK2/Cyclin A2 (Homo sapiens) (UniProt P24941+P20248); assay: Inhibition of CDK2/cyclinA (unknown origin) at 1 uM; assay type: protein-complex assay
[5] = target: Tyrosine-protein kinase Fer (Homo sapiens) (UniProt P16591); assay: Inhibition of FER (unknown origin) at 1 uM
[6] = target: Tyrosine-protein kinase Fes/Fps (Homo sapiens) (UniProt P07332); assay: Inhibition of FES (unknown origin) at 1 uM
[7] = target: Insulin-like growth factor 1 receptor (Homo sapiens) (UniProt P08069); assay: Inhibition of IGF1R (unknown origin) at 1 uM
[8] = target: Tyrosine-protein kinase JAK2 (Homo sapiens) (UniProt O60674); assay: Inhibition of JAK2 (unknown origin) at 1 uM
[9] = target: Activated CDC42 kinase 1 (Homo sapiens) (UniProt Q07912); assay: Inhibition of TNK2 (unknown origin) at 1 uM
[10] = target: Epidermal growth factor receptor (Homo sapiens) (UniProt P00533); assay: Inhibition of EGFR (unknown origin) at 1 uM
[11] = target: Vascular endothelial growth factor receptor 2 (Homo sapiens) (UniProt P35968); assay: Inhibition of KDR (unknown origin) at 1 uM
[12] = target: Leukocyte tyrosine kinase receptor (Homo sapiens) (UniProt P29376); assay: Inhibition of LTK (unknown origin) at 1 uM
[13] = target: Mitogen-activated protein kinase 9 (Homo sapiens) (UniProt P45984); assay: Inhibition of MAPK9 (unknown origin) at 1 uM
[14] = target: Hepatocyte growth factor receptor (Homo sapiens) (UniProt P08581); assay: Inhibition of MET (unknown origin) at 1 uM
[15] = target: Serine/threonine-protein kinase Nek2 (Homo sapiens) (UniProt P51955); assay: Inhibition of NEK2 (unknown origin) at 1 uM
[16] = target: Proto-oncogene tyrosine-protein kinase receptor Ret (Homo sapiens) (UniProt P07949); assay: Inhibition of RET (unknown origin) at 1 uM
[17] = target: ALK tyrosine kinase receptor (Homo sapiens, UniProt Q9UM73, L1196M)
Description: Inhibition of ALK L1196M mutant (unknown origin) at 1 uM

[18] = test system: ALK tyrosine kinase receptor (Homo sapiens), Q9UM73 [L1196M]; assay: Potency index, ratio of crizotinib IC50 to compound IC50 for ALK L1196M mutant (unknown origin) at 1 uM
BaF3 [19] = assay: Potency index, ratio of crizotinib IC50 to compound IC50 for mouse BAF3 cells expressing CD74/ROS1 G2032R mutant incubated for 72 hrs by CCK8 assay; assay type: functional
[20] = target: T2, ALK tyrosine kinase receptor (Homo sapiens, UniProt Q9UM73)
[21] = target: T2, ALK tyrosine kinase receptor; settings: at 1 µM
Target sequence in this assay (Q9UM73 19-1620 limits assumed): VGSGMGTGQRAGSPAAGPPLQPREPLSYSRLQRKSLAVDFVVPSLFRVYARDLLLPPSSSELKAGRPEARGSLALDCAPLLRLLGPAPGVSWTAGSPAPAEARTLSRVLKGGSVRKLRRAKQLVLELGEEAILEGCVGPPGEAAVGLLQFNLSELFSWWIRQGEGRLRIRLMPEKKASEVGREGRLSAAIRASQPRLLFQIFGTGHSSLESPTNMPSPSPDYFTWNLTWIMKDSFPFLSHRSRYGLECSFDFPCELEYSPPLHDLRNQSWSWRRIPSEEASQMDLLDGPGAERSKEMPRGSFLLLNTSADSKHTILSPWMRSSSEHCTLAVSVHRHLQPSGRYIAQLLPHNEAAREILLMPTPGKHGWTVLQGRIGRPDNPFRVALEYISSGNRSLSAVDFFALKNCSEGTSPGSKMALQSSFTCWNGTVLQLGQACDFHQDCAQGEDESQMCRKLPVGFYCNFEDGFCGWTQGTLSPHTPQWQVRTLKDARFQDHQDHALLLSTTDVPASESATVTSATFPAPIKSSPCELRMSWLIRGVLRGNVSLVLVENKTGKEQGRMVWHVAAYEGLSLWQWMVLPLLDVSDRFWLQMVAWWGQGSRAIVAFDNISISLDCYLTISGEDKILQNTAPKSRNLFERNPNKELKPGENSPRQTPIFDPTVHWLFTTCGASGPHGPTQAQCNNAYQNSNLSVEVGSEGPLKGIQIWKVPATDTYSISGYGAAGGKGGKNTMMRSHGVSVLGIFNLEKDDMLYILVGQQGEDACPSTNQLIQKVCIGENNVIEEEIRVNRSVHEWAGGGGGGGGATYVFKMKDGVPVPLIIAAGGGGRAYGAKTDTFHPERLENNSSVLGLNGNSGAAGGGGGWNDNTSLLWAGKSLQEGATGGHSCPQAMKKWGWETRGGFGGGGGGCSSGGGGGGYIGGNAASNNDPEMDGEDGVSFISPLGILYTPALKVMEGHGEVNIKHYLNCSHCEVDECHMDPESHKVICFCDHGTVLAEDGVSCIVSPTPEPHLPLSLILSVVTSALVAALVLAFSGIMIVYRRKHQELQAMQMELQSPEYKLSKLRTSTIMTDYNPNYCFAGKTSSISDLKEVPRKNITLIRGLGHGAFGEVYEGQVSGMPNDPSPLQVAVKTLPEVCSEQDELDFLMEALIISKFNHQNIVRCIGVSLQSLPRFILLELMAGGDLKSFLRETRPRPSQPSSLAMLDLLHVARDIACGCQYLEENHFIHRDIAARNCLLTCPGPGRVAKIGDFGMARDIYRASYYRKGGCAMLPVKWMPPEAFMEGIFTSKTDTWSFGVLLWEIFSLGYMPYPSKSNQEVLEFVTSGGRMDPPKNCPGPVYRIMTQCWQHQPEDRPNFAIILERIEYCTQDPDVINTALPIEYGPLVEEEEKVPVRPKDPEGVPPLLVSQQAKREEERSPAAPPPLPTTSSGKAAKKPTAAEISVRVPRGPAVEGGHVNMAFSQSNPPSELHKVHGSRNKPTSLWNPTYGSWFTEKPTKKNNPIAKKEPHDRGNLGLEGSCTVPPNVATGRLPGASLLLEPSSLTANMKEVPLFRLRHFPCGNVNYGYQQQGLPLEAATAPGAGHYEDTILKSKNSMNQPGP

[22] = test system: ALK tyrosine kinase receptor (Homo sapiens), Q9UM73 [L1196M]; settings: at 1 µM
Description: Inhibition of ALK L1196M mutant (unknown origin) at 1 uM relative to control

[23] = test system: ALK tyrosine kinase receptor (Homo sapiens), Q9UM73 [F1174L]; settings: at 1 µM
[24] = test system: ALK tyrosine kinase receptor (Homo sapiens), Q9UM73 [C1156Y]; settings: at 1 µM
[25] = test system: ALK tyrosine kinase receptor (Homo sapiens), Q9UM73 [R1275Q]; settings: at 1 µM
BaF3 [26] = assay: cells; settings: Mus musculus, BaF3, 72 h
Description: Antiproliferative activity against mouse BAF3 cells expressing wild type CD74/ROS1 assessed as reduction in cell viability incubated for 72 hrs by CCK8 assay

BaF3 [27] = assay: cells; settings: Mus musculus, BaF3, 72 h; remark: listed apart in the source
Description: Antiproliferative activity against mouse BAF3 cells expressing CD74/ROS1 G2032R mutant assessed as reduction in cell viability incubated for 72 hrs by CCK8 assay

BaF3 [28] = assay: cells; settings: Mus musculus, BaF3, 72 h; remark: listed apart in the source
Description: Antiproliferative activity against mouse BAF3 cells expressing CD74/ROS1 L2026M mutant assessed as reduction in cell viability incubated for 72 hrs by CCK8 assay

T1 sequence (P08922 whole entry): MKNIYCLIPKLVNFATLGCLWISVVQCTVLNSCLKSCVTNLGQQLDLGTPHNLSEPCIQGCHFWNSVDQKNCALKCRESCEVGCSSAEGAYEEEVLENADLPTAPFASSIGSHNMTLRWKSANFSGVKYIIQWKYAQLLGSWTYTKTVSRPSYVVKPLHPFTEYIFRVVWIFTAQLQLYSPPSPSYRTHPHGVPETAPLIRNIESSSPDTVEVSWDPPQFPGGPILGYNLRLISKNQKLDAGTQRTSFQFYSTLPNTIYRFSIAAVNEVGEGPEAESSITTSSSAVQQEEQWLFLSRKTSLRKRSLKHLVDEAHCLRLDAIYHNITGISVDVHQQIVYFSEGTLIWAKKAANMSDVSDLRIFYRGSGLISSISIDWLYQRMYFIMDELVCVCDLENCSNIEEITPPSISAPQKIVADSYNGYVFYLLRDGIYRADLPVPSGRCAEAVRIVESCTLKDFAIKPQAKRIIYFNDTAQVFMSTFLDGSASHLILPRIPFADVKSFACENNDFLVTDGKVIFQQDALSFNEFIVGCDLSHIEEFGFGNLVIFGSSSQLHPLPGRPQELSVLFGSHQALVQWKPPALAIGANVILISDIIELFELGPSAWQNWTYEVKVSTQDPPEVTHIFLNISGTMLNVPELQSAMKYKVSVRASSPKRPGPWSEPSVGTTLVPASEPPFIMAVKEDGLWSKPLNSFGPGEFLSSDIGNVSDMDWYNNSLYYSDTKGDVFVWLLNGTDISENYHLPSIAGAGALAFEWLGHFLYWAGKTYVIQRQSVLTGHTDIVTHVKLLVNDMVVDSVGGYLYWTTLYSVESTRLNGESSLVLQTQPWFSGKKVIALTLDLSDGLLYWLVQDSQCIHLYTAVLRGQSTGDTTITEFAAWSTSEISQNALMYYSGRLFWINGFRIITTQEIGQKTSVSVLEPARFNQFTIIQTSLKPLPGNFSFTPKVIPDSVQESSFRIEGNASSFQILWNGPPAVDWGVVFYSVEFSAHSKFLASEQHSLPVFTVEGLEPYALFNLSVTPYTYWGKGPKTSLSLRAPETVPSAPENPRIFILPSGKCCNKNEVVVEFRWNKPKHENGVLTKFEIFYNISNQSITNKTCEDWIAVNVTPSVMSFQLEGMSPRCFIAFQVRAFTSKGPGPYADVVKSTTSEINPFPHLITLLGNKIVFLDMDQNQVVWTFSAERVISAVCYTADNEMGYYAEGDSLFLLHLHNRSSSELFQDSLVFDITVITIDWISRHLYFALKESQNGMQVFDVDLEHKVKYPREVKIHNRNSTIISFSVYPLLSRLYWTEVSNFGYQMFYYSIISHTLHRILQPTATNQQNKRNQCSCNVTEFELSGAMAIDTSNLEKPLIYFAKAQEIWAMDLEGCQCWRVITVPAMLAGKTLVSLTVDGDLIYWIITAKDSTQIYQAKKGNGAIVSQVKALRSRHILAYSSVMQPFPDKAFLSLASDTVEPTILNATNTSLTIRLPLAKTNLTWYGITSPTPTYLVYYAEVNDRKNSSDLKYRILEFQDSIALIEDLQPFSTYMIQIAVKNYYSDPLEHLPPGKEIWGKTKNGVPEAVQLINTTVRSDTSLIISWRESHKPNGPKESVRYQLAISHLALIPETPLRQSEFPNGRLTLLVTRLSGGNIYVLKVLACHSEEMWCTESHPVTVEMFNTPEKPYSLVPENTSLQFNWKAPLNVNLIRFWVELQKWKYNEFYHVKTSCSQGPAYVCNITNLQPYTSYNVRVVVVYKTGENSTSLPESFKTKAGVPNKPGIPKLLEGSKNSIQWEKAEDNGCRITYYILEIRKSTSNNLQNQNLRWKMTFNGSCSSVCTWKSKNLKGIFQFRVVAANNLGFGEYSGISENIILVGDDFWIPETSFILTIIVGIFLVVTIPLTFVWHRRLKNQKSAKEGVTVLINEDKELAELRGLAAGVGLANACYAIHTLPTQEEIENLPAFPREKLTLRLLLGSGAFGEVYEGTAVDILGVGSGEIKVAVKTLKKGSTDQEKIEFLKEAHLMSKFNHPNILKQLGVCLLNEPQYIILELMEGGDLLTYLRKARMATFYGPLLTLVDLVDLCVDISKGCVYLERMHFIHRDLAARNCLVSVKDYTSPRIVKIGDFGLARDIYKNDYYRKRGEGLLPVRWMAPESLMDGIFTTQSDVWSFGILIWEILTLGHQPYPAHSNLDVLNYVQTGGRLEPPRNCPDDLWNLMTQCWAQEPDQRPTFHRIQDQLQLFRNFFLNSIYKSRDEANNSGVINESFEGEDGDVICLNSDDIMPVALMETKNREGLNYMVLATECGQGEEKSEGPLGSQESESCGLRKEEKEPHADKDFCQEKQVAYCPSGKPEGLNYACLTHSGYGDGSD
Chain of Epidermal growth factor receptor (Homo sapiens) (P00533 whole entry): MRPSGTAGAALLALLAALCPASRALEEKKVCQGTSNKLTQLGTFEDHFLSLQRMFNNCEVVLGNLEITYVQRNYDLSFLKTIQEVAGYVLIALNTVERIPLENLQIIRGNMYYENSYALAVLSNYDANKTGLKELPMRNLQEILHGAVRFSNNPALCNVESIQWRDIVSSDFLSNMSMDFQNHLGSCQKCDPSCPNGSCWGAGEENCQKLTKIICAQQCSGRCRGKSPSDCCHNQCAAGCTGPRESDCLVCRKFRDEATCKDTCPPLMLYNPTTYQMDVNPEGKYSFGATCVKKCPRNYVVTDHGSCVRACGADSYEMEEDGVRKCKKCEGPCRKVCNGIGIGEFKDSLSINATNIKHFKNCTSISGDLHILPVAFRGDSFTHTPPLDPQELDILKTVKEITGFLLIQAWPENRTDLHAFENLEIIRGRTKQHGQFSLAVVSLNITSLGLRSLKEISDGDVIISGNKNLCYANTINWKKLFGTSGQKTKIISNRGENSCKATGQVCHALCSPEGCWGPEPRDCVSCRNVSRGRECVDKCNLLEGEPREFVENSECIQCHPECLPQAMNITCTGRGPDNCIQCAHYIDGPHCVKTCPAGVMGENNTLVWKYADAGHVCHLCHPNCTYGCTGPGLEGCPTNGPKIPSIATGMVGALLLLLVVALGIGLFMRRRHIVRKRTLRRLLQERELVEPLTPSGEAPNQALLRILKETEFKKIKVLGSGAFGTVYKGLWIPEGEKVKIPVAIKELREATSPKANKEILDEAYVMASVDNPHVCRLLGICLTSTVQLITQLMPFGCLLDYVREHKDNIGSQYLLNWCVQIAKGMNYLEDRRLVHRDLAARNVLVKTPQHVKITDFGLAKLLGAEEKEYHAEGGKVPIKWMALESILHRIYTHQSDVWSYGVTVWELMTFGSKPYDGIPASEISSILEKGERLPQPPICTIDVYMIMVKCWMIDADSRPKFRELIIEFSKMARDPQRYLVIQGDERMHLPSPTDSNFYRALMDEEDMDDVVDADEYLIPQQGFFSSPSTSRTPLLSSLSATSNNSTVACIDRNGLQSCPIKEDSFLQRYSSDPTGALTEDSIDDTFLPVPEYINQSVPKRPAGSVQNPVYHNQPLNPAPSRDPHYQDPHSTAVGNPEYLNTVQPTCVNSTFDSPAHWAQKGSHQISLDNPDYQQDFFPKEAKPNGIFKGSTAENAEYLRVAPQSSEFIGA

Cc1cc(Nc2cc(N3CCC[C@H](C(=O)NCc4ccc(OC(F)(F)F)cc4)C3)ccn2)ccc1NC1CCN(C)CC1
IC50 [1]: > 10 µM
IC50 (A549): 7.07 µM
IC50 (NCI-H3122): 5.1 µM
IC50 (HCC78): 7.76 µM

Cc1cc(Nc2cc(N3CCC[C@@H](C(=O)NCc4ccc(OC(F)(F)F)cc4)C3)ccn2)ccc1NC1CCN(C)CC1
IC50 [1]: > 10 µM
IC50 (A549): 6.51 µM
IC50 (NCI-H3122): 10.4 µM
IC50 (HCC78): 13.5 µM

Cc1nn(C)cc1Nc1cc(N2CCC[C@H](C(=O)NCc3ccc(OC(F)(F)F)cc3)C2)ccn1
IC50 [1]: 1.26 µM
IC50 (A549): 11.3 µM
IC50 (NCI-H3122): 20.2 µM
IC50 (HCC78): 34.6 µM

COc1cc(N2CCN(C)CC2)ccc1Nc1cc(N2CCC[C@H](C(=O)NCc3ccc(OC(F)(F)F)cc3)C2)ccn1
IC50 [1]: 1.08 µM
IC50 (A549): 7.79 µM
IC50 (NCI-H3122): 7.53 µM
IC50 (HCC78): 14.9 µM

COc1ccc(CNC(=O)[C@H]2CCCN(c3ccnc(Nc4cnn(C5CCNCC5)c4)c3)C2)cc1OC
IC50 [2]: Not Active
IC50 (A549): > 100 µM
IC50 (NCI-H3122): 51.7 µM
IC50 (HCC78): 83.7 µM

Cc1ccc(CNC(=O)[C@H]2CCCN(c3ccnc(Nc4cn(C)nc4C)c3)C2)cc1
IC50 [2]: Not Active
IC50 (A549): 39.6 µM
IC50 (NCI-H3122): 40.7 µM
IC50 (HCC78): 67.2 µM

COc1cc(N2CCC(N3CCOCC3)CC2)ccc1Nc1cc(N2CCC[C@H](C(=O)NCc3ccc(OC(F)(F)F)cc3)C2)ccn1
IC50 [1]: 3.39 µM
IC50 (A549): 6.93 µM
IC50 (NCI-H3122): 5.81 µM
IC50 (HCC78): 15.2 µM

COc1cc(N2CCNCC2)ccc1Nc1cc(N2CCC[C@H](C(=O)NCc3ccc(OC(F)(F)F)cc3)C2)ccn1
inhibition [3]: -5%
inhibition [4]: 1%
inhibition [5]: 6%
inhibition [6]: -1%
inhibition [7]: 3%
inhibition [8]: 11%
inhibition [9]: -3%
inhibition [10]: 11%
inhibition [11]: -3%
inhibition [12]: 91%
inhibition [13]: -10%
inhibition [14]: 6%
inhibition [15]: -7%
inhibition [16]: -3%
IC50 [17]: 0.0413 µM
Ratio IC50 [18]: 2
Ratio IC50 (BaF3 [19]): 6
IC50 [1]: 0.53 µM
IC50 [20]: 0.174 µM
inhibition [21]: 95%
inhibition [22]: 93%
inhibition [23]: 80%
inhibition [24]: 100%
inhibition [25]: 92%
IC50 (A549): 3.64 µM
IC50 (NCI-H3122): 6.45 µM
IC50 (HCC78): 10.7 µM
IC50 (BaF3 [26]): 0.138 µM
IC50 (BaF3 [27]): 0.105 µM
IC50 (BaF3 [28]): 0.234 µM

COc1ccc(CNC(=O)[C@H]2CCCN(c3ccnc(Nc4cn(C)nc4C)c3)C2)cc1OC
IC50 [2]: Not Active
IC50 (A549): > 100 µM
IC50 (NCI-H3122): > 100 µM
IC50 (HCC78): > 100 µM

Cc1nn(C)cc1Nc1cc(N2CCC[C@@H](C(=O)NCc3ccc(OC(F)(F)F)cc3)C2)ccn1
IC50 [1]: 7.3 µM
IC50 (A549): 9.74 µM
IC50 (NCI-H3122): 13.9 µM
IC50 (HCC78): 80.7 µM

COc1cc(Nc2cc(N3CCC[C@H](C(=O)NCc4ccc(C)cc4)C3)ccn2)cc(OC)c1OC
IC50 [1]: 12.1 µM
IC50 (A549): 12.7 µM
IC50 (NCI-H3122): 27.8 µM
IC50 (HCC78): 24.5 µM

O=C(NCc1ccc(OC(F)(F)F)cc1)[C@H]1CCCN(c2ccnc(Nc3ncccn3)c2)C1
IC50 [2]: Not Active
IC50 (A549): 17.2 µM
IC50 (NCI-H3122): 44.3 µM
IC50 (HCC78): 36.5 µM

COc1ccc(CNC(=O)[C@H]2CCCN(c3ccnc(Nc4cnn(C5CCN(C)CC5)c4)c3)C2)cc1OC
IC50 [2]: Not Active
IC50 (A549): > 100 µM
IC50 (NCI-H3122): > 100 µM
IC50 (HCC78): > 100 µM

COc1cc(N2CCC(N3CCOCC3)CC2)ccc1Nc1cc(N2CCC[C@@H](C(=O)NCc3ccc(OC(F)(F)F)cc3)C2)ccn1
IC50 [1]: > 10 µM
IC50 (A549): 6.45 µM
IC50 (NCI-H3122): 8.3 µM
IC50 (HCC78): 13.7 µM

COc1ccc(CNC(=O)[C@H]2CCCN(c3ccnc(Nc4cnn(C)c4)c3)C2)cc1OC
IC50 [2]: Not Active
IC50 (A549): > 100 µM
IC50 (NCI-H3122): > 100 µM
IC50 (HCC78): > 100 µM

COc1cc(N2CCNCC2)ccc1Nc1cc(N2CCC[C@@H](C(=O)NCc3ccc(OC(F)(F)F)cc3)C2)ccn1
IC50 [1]: 1.21 µM
IC50 [20]: 0.56 µM
inhibition [21]: 76%
IC50 (A549): 5.11 µM
IC50 (NCI-H3122): 10.7 µM
IC50 (HCC78): 25.3 µM

COc1cc(N2CCC(N3CCN(C)CC3)CC2)ccc1Nc1cc(N2CCC[C@@H](C(=O)NCc3ccc(OC(F)(F)F)cc3)C2)ccn1
IC50 [1]: > 10 µM
IC50 (A549): 2.79 µM
IC50 (NCI-H3122): 8.86 µM
IC50 (HCC78): 10.9 µM

COc1cc(N2CCC(N3CCN(C)CC3)CC2)ccc1Nc1cc(N2CCC[C@H](C(=O)NCc3ccc(OC(F)(F)F)cc3)C2)ccn1
IC50 [1]: 2.26 µM
IC50 (A549): 6.6 µM
IC50 (NCI-H3122): 16.6 µM
IC50 (HCC78): 11 µM

CN1CCC(n2cc(Nc3cc(N4CCC[C@H](C(=O)NCc5ccc(C#N)cc5)C4)ccn3)cn2)CC1
IC50 [2]: Not Active
IC50 (A549): 53.8 µM
IC50 (NCI-H3122): 15.1 µM
IC50 (HCC78): 87.6 µM
